# Test results reported in the supplement of paper PMC10307832.
# Tests used:
# Assay in all cases: relative viability (nuclei count vs DMSO), 5 days (fraction); higher = more cells survive
# NCI-H1666 = system: NCI-H1666
# Procedure, shortened: (§1)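 Relative viability was taken as the ratio of nuclei in treated wells to nuclei in vehicle wells. Lung cancer cell lines in 1536-well plates received compounds by pin tool one day after seeding, either one drug alone or a fixed anchor-drug dose plus five library-drug doses (not always all listed) in √10 steps. Nuclei were counted on 4× images after 5 days of treatment, and values are medians of duplicate plates.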
# NCI-H1734 = system: NCI-H1734
# Procedure, shortened: as §1
# NCI-H1944 = system: NCI-H1944
# Procedure, shortened: as §1
# NCI-H1975 = system: NCI-H1975
# Procedure, shortened: as §1
# NCI-H1993 = system: NCI-H1993
# Procedure, shortened: as §1
# NCI-H3122 = system: NCI-H3122
# Procedure, shortened: as §1
# NCI-H647 = system: NCI-H647
# Procedure, shortened: as §1
# NCI-H838 = system: NCI-H838
# Procedure, shortened: as §1
# PC-14 = system: PC-14
# Procedure, shortened: as §1
# PC-3 [JPC-3] = system: PC-3 [JPC-3]
# Procedure, shortened: as §1
# SK-LU-1 = system: SK-LU-1
# Procedure, shortened: as §1
smiles,measurement,setting,value
COCC1(CO)C(=O)C2CCN1CC2 (stereo unspecified) [PRIMA-1MET] + Cc1nc(NC(=O)N2CCC[C@H]2C(N)=O)sc1-c1ccnc(C(C)(C)C(F)(F)F)c1 [Alpelisib] (partner 2 µM),relative viability,NCI-H1666; first compound 6.325 µM,0.834
same,relative viability,NCI-H1666; first compound 20 µM,0.123
same,relative viability,NCI-H1734; first compound 0.2 µM,0.876
same,relative viability,NCI-H1734; first compound 0.6325 µM,0.658
same,relative viability,NCI-H1734; first compound 2 µM,0.679
same,relative viability,NCI-H1734; first compound 6.325 µM,0.73
same,relative viability,NCI-H1734; first compound 20 µM,0.3
same,relative viability,NCI-H1944; first compound 0.2 µM,1.01
same,relative viability,NCI-H1944; first compound 0.6325 µM,0.719
same,relative viability,NCI-H1944; first compound 6.325 µM,0.849
same,relative viability,NCI-H1944; first compound 20 µM,0.823
same,relative viability,NCI-H1975; first compound 0.2 µM,0.822
same,relative viability,NCI-H1975; first compound 0.6325 µM,0.603
same,relative viability,NCI-H1975; first compound 2 µM,0.694
same,relative viability,NCI-H1975; first compound 6.325 µM,0.68
same,relative viability,NCI-H1975; first compound 20 µM,0.574
same,relative viability,NCI-H1993; first compound 0.2 µM,0.724
same,relative viability,NCI-H1993; first compound 0.6325 µM,0.706
same,relative viability,NCI-H1993; first compound 2 µM,0.628
same,relative viability,NCI-H1993; first compound 6.325 µM,0.768
same,relative viability,NCI-H1993; first compound 20 µM,0.664
same,relative viability,NCI-H3122; first compound 0.2 µM,0.696
same,relative viability,NCI-H3122; first compound 0.6325 µM,0.683
same,relative viability,NCI-H3122; first compound 2 µM,0.844
same,relative viability,NCI-H3122; first compound 6.325 µM,0.628
same,relative viability,NCI-H3122; first compound 20 µM,0.684
same,relative viability,NCI-H647; first compound 0.2 µM,1.33
same,relative viability,NCI-H647; first compound 0.6325 µM,1.04
same,relative viability,NCI-H647; first compound 2 µM,1.13
same,relative viability,NCI-H647; first compound 6.325 µM,1.09
same,relative viability,NCI-H647; first compound 20 µM,0.892
same,relative viability,NCI-H838; first compound 0.2 µM,1.26
same,relative viability,NCI-H838; first compound 0.6325 µM,0.968
same,relative viability,NCI-H838; first compound 2 µM,1.06
same,relative viability,NCI-H838; first compound 6.325 µM,1.13
same,relative viability,NCI-H838; first compound 20 µM,0.61
same,relative viability,PC-14; first compound 0.2 µM,0.839
same,relative viability,PC-14; first compound 0.6325 µM,1.03
same,relative viability,PC-14; first compound 2 µM,0.926
same,relative viability,PC-14; first compound 6.325 µM,1.07
same,relative viability,PC-14; first compound 20 µM,0.905
same,relative viability,PC-3 [JPC-3]; first compound 0.2 µM,1.1
same,relative viability,PC-3 [JPC-3]; first compound 0.6325 µM,0.942
same,relative viability,PC-3 [JPC-3]; first compound 2 µM,1.02
same,relative viability,PC-3 [JPC-3]; first compound 6.325 µM,1.07
same,relative viability,PC-3 [JPC-3]; first compound 20 µM,1.06
same,relative viability,SK-LU-1; first compound 0.2 µM,1.11
same,relative viability,SK-LU-1; first compound 0.6325 µM,0.918
same,relative viability,SK-LU-1; first compound 2 µM,1.04
same,relative viability,SK-LU-1; first compound 6.325 µM,0.99
same,relative viability,SK-LU-1; first compound 20 µM,0.109
